For this assay, the target named is T1, KCNT1 (KNa1.1, Slack) (Homo sapiens, UniProt Q5JUK3).
T1 construct: expressed in transfected cells; host or cells: HEK-TREX (tetracycline-inducible cell line)
T1 sequence (Q5JUK3 1-1230): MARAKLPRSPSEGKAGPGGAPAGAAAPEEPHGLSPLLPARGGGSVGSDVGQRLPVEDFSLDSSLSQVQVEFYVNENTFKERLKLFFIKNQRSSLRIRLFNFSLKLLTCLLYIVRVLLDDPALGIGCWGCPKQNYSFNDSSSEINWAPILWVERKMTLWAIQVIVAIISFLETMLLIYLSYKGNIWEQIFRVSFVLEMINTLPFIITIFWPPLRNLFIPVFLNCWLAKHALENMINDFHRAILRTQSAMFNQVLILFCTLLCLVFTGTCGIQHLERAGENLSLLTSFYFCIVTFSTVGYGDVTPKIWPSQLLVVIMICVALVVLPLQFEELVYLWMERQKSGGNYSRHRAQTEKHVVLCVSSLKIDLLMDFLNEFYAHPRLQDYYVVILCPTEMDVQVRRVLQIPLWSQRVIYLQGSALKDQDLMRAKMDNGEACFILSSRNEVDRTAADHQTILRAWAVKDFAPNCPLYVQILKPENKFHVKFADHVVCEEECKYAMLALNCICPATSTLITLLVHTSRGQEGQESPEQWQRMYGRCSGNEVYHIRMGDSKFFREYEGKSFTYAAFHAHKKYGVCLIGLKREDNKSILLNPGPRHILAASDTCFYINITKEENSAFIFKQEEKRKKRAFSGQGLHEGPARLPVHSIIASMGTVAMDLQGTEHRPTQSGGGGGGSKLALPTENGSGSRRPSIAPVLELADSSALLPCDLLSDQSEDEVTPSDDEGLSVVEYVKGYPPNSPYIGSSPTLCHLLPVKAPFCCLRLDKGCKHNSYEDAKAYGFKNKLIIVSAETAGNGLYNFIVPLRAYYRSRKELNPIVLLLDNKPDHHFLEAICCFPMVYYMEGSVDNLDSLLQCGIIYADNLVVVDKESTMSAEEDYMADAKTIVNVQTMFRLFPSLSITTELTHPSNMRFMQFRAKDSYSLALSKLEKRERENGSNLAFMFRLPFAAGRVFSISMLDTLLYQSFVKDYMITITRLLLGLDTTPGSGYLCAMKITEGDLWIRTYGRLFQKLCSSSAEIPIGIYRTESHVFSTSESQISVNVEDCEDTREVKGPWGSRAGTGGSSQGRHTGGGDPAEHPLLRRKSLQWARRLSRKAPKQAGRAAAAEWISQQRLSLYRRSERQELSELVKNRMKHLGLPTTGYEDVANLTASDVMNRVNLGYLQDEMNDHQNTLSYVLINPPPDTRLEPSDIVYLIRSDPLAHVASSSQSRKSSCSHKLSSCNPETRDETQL
Nature of the assay: KCNT1-WT-Basal Patch Clamp Assay. To be noted: tetracycline inducible cell line (HEK-TREX); SyncroPatch 384PE automated patch clamp, perforated patch mode, room temperature, step from -80 mV to 0 mV. It is filed as cell-based. The method, then:
KCNT1-WT-Basal—Patch Clamp Assay
Inhibition of KCNT1 (KNa1.1, Slack) was evaluated using a tetracycline inducible cell line (HEK-TREX). Currents were recorded using the SyncroPatch 384PE automated, patch clamp system. Pulse generation and data collection were performed with PatchController384 V1.3.0 and DataController384 V1.2.1 (Nanion Technologies). The access resistance and apparent membrane capacitance were estimated using built-in protocols. Current were recorded in perforated patch mode (10 μM escin) from a population of cells. The cells were lifted, triturated, and resuspended at 800,000 cells/ml. The cells were allowed to recover in the cell hotel prior to experimentation. Currents were recorded at room temperature. The external solution contained the following (in mM): NaCl 105, NMDG 40, KCl 4, MgCl2 1, CaCl2 5 and HEPES 10 (pH=7.4, Osmolarity ˜300 mOsm). The extracellular solution was used as the wash, reference and compound delivery solution. The internal solution contained the following (in mM): NaCl 70, KF 70, KCl 10, EGTA 5, HEPES 5 and Escin 0.01 (pH=7.2, Osmolarity ˜295 mOsm). Escin is made at a 5 mM stock in water, aliquoted, and stored at −20° C. The compound plate was created at 2× concentrated in the extracellular solution. The compound was diluted to 1:2 when added to the recording well. The amount of DMSO in the extracellular solution was held constant at the level used for the highest tested concentration. A holding potential of −80 mV with a 100 ms step to 0 mV was used. Mean current was measured during the step to 0 mV. […] The average mean current from 3 sweeps was calculated and the % inhibition of each compound was calculated. The % Inhibition as a function of the compound concentration was fit with a Hill equation to derive IC50, slope, min and max parameters. If KCNT1 inhibition was less than 50% at the highest tested concentration or if an IC50 could not be calculated, then a percent inhibition was reported in place of the IC50.
In this table, “A” indicates IC50 of less than or equal to 1 μM; “B” indicates inhibition of between 1 μM to 20 μM; and “C” indicates inhibition of greater than or equal to 20 μM.
For orientation: The patch-clamp technique gives a direct electrical read-out from membranes.

Bounds are passed on as bounds.

For orientation: IC50 means the concentration needed to halve the response being measured.

For `CC1CC(C(=O)N[C@@H](C)c2nc(-c3ccnc(C(F)(F)F)c3)no2)C1` (mixture of isomers) [Compound I-74, 3-methyl-N-[(1S)-1-[3-[2-(trifluoromethyl)-4-pyridyl]-1,2,4-oxadiazol-5-yl]ethyl]cyclobutanecarboxamide], the IC50 was at most 1 µM.
Next, `CC(=O)N1CCCC(C(=O)N[C@@H](C)c2nc(-c3ccnc(C(F)(F)F)c3)no2)C1` (mixture of isomers) [Compound I-85, 1-acetyl-N-[(1S)-1-[3-[2-(trifluoromethyl)-4-pyridyl]-1,2,4-oxadiazol-5-yl]ethyl]piperidine-3-carboxamide]: at least 20 µM; `CC(=O)N1CCCCC1C(=O)N[C@@H](C)c1nc(-c2ccnc(C(F)(F)F)c2)no1` (mixture of isomers) [Compound I-86, 1-acetyl-N-[(1S)-1-[3-[2-(trifluoromethyl)-4-pyridyl]-1,2,4-oxadiazol-5-yl]ethyl]piperidine-2-carboxamide]: at least 20 µM; `C[C@H](NC(=O)C1CCC(O)CC1)c1nc(-c2ccnc(C(F)(F)F)c2)no1` (single isomer, unassigned) [Compound I-77]: at least 20 µM.
Molecule `C[C@H](NC(=O)C1CCC(O)CC1)c1nc(-c2ccnc(C(F)(F)F)c2)no1` (single isomer, unassigned) [Compound I-78] yielded an IC50 of at least 20 µM.
In turn, `C[C@H](NC(=O)c1ccc(C(F)(F)F)cn1)c1nc(-c2ccnc(C(F)(F)F)c2)no1` [Compound I-1, (S)-5-(trifluoromethyl)-N-(1-(3-(2-(trifluoromethyl)pyridin-4-yl)-1,2,4-oxadiazol-5-yl)ethyl)picolinamide] yielded an IC50 of 1 to 20 µM.
For the molecule `C[C@H](NC(=O)C1CC(F)(F)C1)c1nc(-c2ccnc(C(F)(F)F)c2)no1` [Compound I-2, (S)-3,3-difluoro-N-(1-(3-(2-(trifluoromethyl)pyridin-4-yl)-1,2,4-oxadiazol-5-yl)ethyl)cyclobutane-1-carboxamide], the IC50 is 1 to 20 µM.
Consider `C[C@H](NC(=O)C1CCC(F)(F)CC1)c1nc(-c2ccnc(C(F)(F)F)c2)no1` [Compound I-3, (S)-4,4-difluoro-N-(1-(3-(2-(trifluoromethyl)pyridin-4-yl)-1,2,4-oxadiazol-5-yl)ethyl)cyclohexane-1-carboxamide], for which the IC50 is at most 1 µM.
As for `C[C@H](NC(=O)c1c[nH]c(C(F)(F)F)n1)c1nc(-c2ccnc(C(F)(F)F)c2)no1` [Compound I-4, (S)-2-(trifluoromethyl)-N-(1-(3-(2-(trifluoromethyl)pyridin-4-yl)-1,2,4-oxadiazol-5-yl)ethyl)-1H-imidazole-4-carboxamide], the IC50 was at least 20 µM.
As for `C[C@H](NC(=O)c1nc(C(F)(F)F)cs1)c1nc(-c2ccnc(C(F)(F)F)c2)no1` [Compound I-5, (S)-4-(trifluoromethyl)-N-(1-(3-(2-(trifluoromethyl)pyridin-4-yl)-1,2,4-oxadiazol-5-yl)ethyl)thiazole-2-carboxamide], the IC50 is at most 1 µM.
As to `C[C@H](NC(=O)c1ccncc1)c1nc(-c2ccnc(C(F)(F)F)c2)no1` [Compound I-6, (S)—N-(1-(3-(2-(trifluoromethyl)pyridin-4-yl)-1,2,4-oxadiazol-5-yl)ethyl)isonicotinamide], the IC50 is at least 20 µM.
Take `C[C@H](NC(=O)c1ccccn1)c1nc(-c2ccnc(C(F)(F)F)c2)no1` [Compound I-7, (S)—N-(1-(3-(2-(trifluoromethyl)pyridin-4-yl)-1,2,4-oxadiazol-5-yl)ethyl)picolinamide]: the IC50 was at least 20 µM.
Consider `C[C@H](NC(=O)c1ccccc1)c1nc(-c2ccnc(C(F)(F)F)c2)no1` [Compound I-8, (S)—N-(1-(3-(2-(trifluoromethyl)pyridin-4-yl)-1,2,4-oxadiazol-5-yl)ethyl)benzamide], for which the IC50 is at most 1 µM.
In the case of `C[C@H](NC(=O)C1CCCCC1)c1nc(-c2ccnc(C(F)(F)F)c2)no1` [Compound I-9] it was at most 1 µM; in that of `C[C@H](NC(=O)c1csc(C(F)(F)F)n1)c1nc(-c2ccnc(C(F)(F)F)c2)no1` [Compound I-10, (S)-2-(trifluoromethyl)-N-(1-(3-(2-(trifluoromethyl)pyridin-4-yl)-1,2,4-oxadiazol-5-yl)ethyl)thiazole-4-carboxamide], at most 1 µM; in that of `C[C@H](NC(=O)c1cccnc1)c1nc(-c2ccnc(C(F)(F)F)c2)no1` [Compound I-11, (S)—N-(1-(3-(2-(trifluoromethyl)pyridin-4-yl)-1,2,4-oxadiazol-5-yl)ethyl)nicotinamide], 1 to 20 µM.
Next, `C[C@H](NC(=O)C1CCOCC1)c1nc(-c2ccnc(C(F)(F)F)c2)no1` [Compound I-12, (S)—N-(1-(3-(2-(trifluoromethyl)pyridin-4-yl)-1,2,4-oxadiazol-5-yl)ethyl)tetrahydro-2H-pyran-4-carboxamide]: at least 20 µM.
For the molecule `C[C@H](NC(=O)Cc1ccccc1)c1nc(-c2ccnc(C(F)(F)F)c2)no1` [Compound I-13, (S)-2-phenyl-N-(1-(3-(2-(trifluoromethyl)pyridin-4-yl)-1,2,4-oxadiazol-5-yl)ethyl)acetamide], the IC50 lay within 1 to 20 µM.
Molecule `C[C@H](NC(=O)c1ccnc(C(F)(F)F)c1)c1nc(-c2ccnc(C(F)(F)F)c2)no1` [Compound I-14, (S)-2-(trifluoromethyl)-N-(1-(3-(2-(trifluoromethyl)pyridin-4-yl)-1,2,4-oxadiazol-5-yl)ethyl)isonicotinamide] showed an IC50 of at most 1 µM.
The molecule `CC[C@H](NC(=O)Cc1ccccc1)c1nc(-c2ccnc(C(F)(F)F)c2)no1` [Compound I-15, (S)-2-phenyl-N-(1-(3-(2-(trifluoromethyl)pyridin-4-yl)-1,2,4-oxadiazol-5-yl)propyl)acetamide] had an IC50 of at most 1 µM.
Next, `C[C@H](NC(=O)[C@@H](C)c1ccccc1)c1nc(-c2ccnc(C(F)(F)F)c2)no1` [Compound I-16, (S)-2-phenyl-N—((S)-1-(3-(2-(trifluoromethyl)pyridin-4-yl)-1,2,4-oxadiazol-5-yl)ethyl)propanamide]: at most 1 µM.
In turn, `C[C@H](NC(=O)[C@H](C)c1ccccc1)c1nc(-c2ccnc(C(F)(F)F)c2)no1` [Compound I-17, (R)-2-phenyl-N—((S)-1-(3-(2-(trifluoromethyl)pyridin-4-yl)-1,2,4-oxadiazol-5-yl)ethyl)propanamide] had an IC50 of at most 1 µM.
`C[C@H](NC(=O)c1ccc(Br)s1)c1nc(-c2ccnc(C(F)(F)F)c2)no1` [Compound I-18, (S)-5-bromo-N-(1-(3-(2-(trifluoromethyl)pyridin-4-yl)-1,2,4-oxadiazol-5-yl)ethyl)thiophene-2-carboxamide] returned an IC50 of at most 1 µM.

The values are drawn from US12583849B2, “KCNT1 inhibitors and methods of use” (Praxis Precision Medicines, Inc., priority 2020, dated 2026).
